Laboratory results published in publication PMC8820820, “Feasibility and safety of targeting mitochondria for cancer therapy – preclinical characterization of gamitrinib, a first-in-class, mitochondriaL-targeted small molecule Hsp90 inhibitor” (Cancer Biology & Therapy, 2022).
Where two headings read alike, the source gives them in different places.

Assays:
[1] = test system: NCI 60 cell-line screen; design: method as in PMID 20876793, PMID 21285984; settings: read-out: IC50, anticancer activity, cited from earlier work
[2] = test system: Sprague-Dawley rats; assay: Toxicity in Sprague-Dawley rats; type: in vivo; settings: for reduction in mean body weights: male rats, fully recoverable, not adverse
Protocol: Ninety-six male and female Sprague-Dawley rats (6–7 weeks old) were received from Charles River Laboratories (Raleigh, NC) catheterized via a femoral vein prior to arrival. Animals were acclimated in individual stainless-steel cages with access to water and Certified Rodent Diet #2014 C (Envigo RMS) ad libitum for 6 d prior to study initiation. Environmental controls were set to maintain a temperature range of 20 to 26°C, a relative humidity range of 30 to 70%, eight or greater air changes/h, and a 12-h light/dark cycle. Animals were infused with sterile isotonic (0.9%) saline for a minimum of 4 d (0.20 mL/h for males or 0.15 mL/h for females) during the predose phase. At initiation of dosing, animals were 8 to 9 weeks old, and body weights ranged from 283 to 341 g for males and 188 to 238 g for females. Gamitrinib formulated as indicated above was administered by IV infusion on d 4, 8, 11, 15, 18, 22, 25, and 29 of the dosing phase at 1, 10, 25 mg/kg/dose and dose volume of 5 mL/kg. The vehicle control administered with the same schedule contained 2.5% DMSO, 0.125% polysorbate 80, 0.031% lecithin, 1.25% sucrose and 4.375% dextrose. Animals were checked twice daily throughout the duration of the study for mortality, abnormalities, and signs of pain or distress. Detailed observations were conducted for each animal up to two times during the predose phase and for each toxicity animal prior to dosing on d 1, 8, 15, 22, and 29 of the dosing phase and on d 1, 7, and 14 of the recovery phase. Blood samples were collected on d. 1, 4 and 29 of the dosing phase 5 min, 1 h and 24 h post-dose, maintained on chilled cryoracks and centrifuged within 1 h of collection. Tissue samples harvested from each animal were embedded in paraffin, sectioned, and slides were prepared and stained with hematoxylin and eosin.

[3] = design: species or system beagle dogs; settings: dog, in vivo
Protocol: (§1) Eighteen male and female (5–6 mo old) purebred beagle dogs (Cumberland, VA) were acclimated for 47 d (20°C to 26°C, relative humidity 30–70%, 10 or greater air changes/h, and a 12-h light/dark cycle) prior to study initiation. Animals were given water ad libitum and Certified Canine Diet #5007 (PMI Nutrition International Certified LabDiet®) for 4 to 5 h each day. At study initiation, animal body weights ranged from 8.6 to 11.5 kg for males and 6.0 to 9.4 kg for females. At least 1 week prior to initiation of dosing, animals were fasted overnight, anesthetized, and a catheter attached to a subcutaneous vascular access port was surgically implanted into a jugular vein. Animals were acclimated to infusion jackets prior to catheter implantation surgery. Animals were infused with sterile saline at a dose rate of 5 mL/h when the vascular access ports were accessed and when animals were connected to the infusion system (except when dosed with the test or vehicle control article). The patency of each catheter was checked as needed. Prednisolone tablets were administered orally at 2 mg/kg the night prior to dosing. Diphenhydramine (5 mg/kg; IM injection 0.1 mL/kg, 50 mg/mL) was administered prior to dosing and post the start of infusion (d 1 only). Male and female dogs received dose levels of Gamitrinib of 1.25, 3.33 and 6.25 mg/kg/dose formulated as indicated above during a 1 h infusion on d 1, 8, 11, 15, 18, 22, 25, 29, 32, and 36 at a volume of 2 mL/kg. The vehicle control was as above. […] Dosing was stopped, and 23 of 24 animals were administered additional diphenhydramine, 11 were administered Flunixin meglumine and buprenorphine, and 6 were administered acepromazine. Symptoms subsided in all animals after completion of these interventions. As a result of these observations, the polysorbate levels, which were increased from 0.025% (w/v) to 0.125% (w/v) to minimize precipitation, were returned to the original concentrations; 2 mg/kg prednisone was administered orally the night prior to dosing; and the diphenhydramine pretreatment dose was updated to 5 mg/kg 15 to 30 min prior to dosing. Detailed observations were conducted for each animal up to seven times during the predose phase, prior to dosing on d 1, 8, 15, 22, 29, and 36 of the dosing phase, and on d 1, 7, and 14 of the recovery phase. Blood samples (1 mL) were collected via the cephalic vein 5, 15, and 30 min and 1, 4, 8, and 24 h post the end of infusion on d 8 and 36 of the dosing phase. Formalin-fixed and paraffin-embedded tissue samples collected at the end of the study (d 39) were processed for histologic examination.

[4] = test system: beagle dogs; assay: Toxicity in beagle dogs; type: in vivo
Protocol: as §1

Q: For `COC1C=CC=C(C)C(=O)NC2=CC(=O)C(NCCCCCC[P+](c3ccccc3)(c3ccccc3)c3ccccc3)=C(CC(C)CC(OC)C(O)C(C)C=C(C)C1OC(N)=O)C2=O.F[P-](F)(F)(F)(F)F` (stereo not shown) [Gamitrinib], which IC50 ([1]; NCI 60 cell-line screen, all lines) is on record?
A: Its IC50 is 160 to 29000 nM.

Q: What about the IC50 ([1]; breast adenocarcinoma cell lines) of the same compound?
A: Its IC50 is 160 to 3300 nM.

Q: What about the IC50 ([1]; colon adenocarcinoma cell lines) of the same compound?
A: The IC50 was 350 to 29000 nM.

Q: And the IC50 ([1]; melanoma cell lines)?
A: The IC50 was 360 to 2700 nM.

Q: And the “reduction in mean body weights” value ([2]; 10 mg/kg/dose)?
A: The value was −5.5%.

Q: What about the “reduction in mean body weights” value ([2]; 25 mg/kg/dose) of the same compound?
A: The value was −5.7%.

Q: What about the “urinalysis and ophthalmic findings” value ([2]; rats) of the same compound?
A: The value was “No effects on urinalysis or ophthalmic changes”.

Q: What about the “serum urea nitrogen (UN) and creatinine concentrations” value ([2]; rats, 25 mg/kg/dose) of the same compound?
A: Its value is “Minimally to mildly higher”.

Q: And the kidney microscopic findings ([2]; rats, 25 mg/kg/dose, persisted to end of recovery)?
A: Its kidney microscopic findings is “tubular degeneration/regeneration”.

Q: And the “non-observed adverse effect level (NOAEL)” value ([2]; rats, IV twice weekly for 29 d)?
A: Its value is 1 mg/kg/dose.

Q: And the “severely toxic dose in 10% of the animals (STD 10)” value ([2]; rats, IV twice weekly for 29 d)?
A: Its value is 10 mg/kg/dose.

Q: What about the “alterations in clinical chemistry parameters” value ([2]; rats, highest dose level tested) of the same compound?
A: The value was “mildly to moderately higher neutrophil, and platelet (Plts) counts, minimally prolonged partial thromboplastin time (PT), lower albumin, higher globulin, and alkaline phosphatase concentrations”.

Q: And the Gamitrinib-related clinical observations ([2]; rats, ≥10 mg/kg/dose)?
A: Its Gamitrinib-related clinical observations is “inguinal swelling, piloerection, hypoactivity, and sensitivity to touch at the infusion site”.

Q: What about the “microscopic findings at infusion site” value ([2]; rats, ≥10 mg/kg/dose, both sexes, persisted through recovery) of the same compound?
A: The value was “mixed cell inflammation at the catheter/infusion site”.

Q: What about the Gamitrinib-related mortality ([2]; toxicity animals, 10 mg/kg/dose) of the same compound?
A: Its Gamitrinib-related mortality is “one male”.

Q: And the Gamitrinib-related mortality ([2]; toxicity animals, 25 mg/kg/dose, severe inflammation and marked hemorrhage at infusion site)?
A: Its Gamitrinib-related mortality is “two males, one female”.

Q: And the Gamitrinib-related mortality ([2]; toxicokinetic animals, 10 mg/kg/dose)?
A: The Gamitrinib-related mortality was “two toxicokinetic females”.

Q: What about the Gamitrinib-related mortality ([2]; toxicokinetic animals, 25 mg/kg/dose) of the same compound?
A: Its Gamitrinib-related mortality is “one toxicokinetic female”.

Q: What about the “AUC0–24” value ([3]; 3.33 mg/kg) of the same compound?
A: The value was 1740 ± 713 ng·h/mL.

Q: What about the Cmax ([3]; 3.33 mg/kg) of the same compound?
A: Its Cmax is 560 ± 404 ng/mL.

Q: And the “AUC0–24” value ([3]; 6.25 mg/kg)?
A: Its value is 3290 ± 1090 ng·h/mL.

Q: And the Cmax ([3]; 6.25 mg/kg)?
A: Its Cmax is 1260 ± 556 ng/mL.

Q: What about the “Bone marrow and liver parameters” value ([4]; dog, in vivo) of the same compound?
A: The value was “unremarkable”.

Q: And the organ weight ([4]; dog, in vivo)?
A: The organ weight was “No Gamitrinib-related changes in organ weight”.

Q: What about the kidney microscopic findings ([4]; dog, in vivo, 6.25 mg/kg) of the same compound?
A: The kidney microscopic findings was “slight to moderate kidney tubular degeneration/regeneration”.

Q: And the “serum urea nitrogen and creatinine” value ([4]; dog, in vivo, 6.25 mg/kg)?
A: Its value is “trend of increased serum urea nitrogen and creatinine”.

Q: What about the NOAEL ([4]; dogs, IV for 36 d) of the same compound?
A: The NOAEL was 3.33 mg/kg/dose.

Q: What about the “highest non-severely toxic dose (HNSTD)” value ([4]; dogs, IV for 36 d) of the same compound?
A: Its value is 6.25 mg/kg/dose.
